Measured values taken from patent US10874670B2, “Substituted fused heteroaromatic compounds as kinase inhibitors and the use thereof” (IMPACT THERAPEUTICS, INC., priority 2017, dated 2020).

What was measured:
[1] = tested on: human colon cancer cell SW620; assay: MTT assay, growth of SW620 cells, compounds combined with CPT-11; assay type: cell-based; settings: Homo sapiens, SW-620, 120 h; combined with CPT-11 (205 nM medium), 5 days, MTT
Method: Inhibitory effects of N,N-dimethyl-3-(4-(1-(tetrahydro-2H-pyran-4-yl)-[1,2,4]triazolo[4,3-a]quinoxalin-8-yl)phenoxy)propan-1-amine and its Analogues Combined with CPT-11 on the Growth of Human Colon Cancer Cell SW620 were Determined by MTT Assay
SW620 cells were digested by trypsinase, centrifuged at 800 rpm for 5 minutes, the supernatant was discarded, resuspended with fresh medium (RPMI 1640 medium+10% FBS) and counted. The cells were seeded into 96-well cell culture plate with appropriate cell density and incubated overnight in a 37° C. 5% CO2 incubator. The stock solutions of the tested compound and the reference compound AZD0156 were serially diluted to 8 concentrations by DMSO at the ratios of 1:3 and 1:10, respectively, the first concentration was 10 μM or 1 μM, and the last concentration was negative control of DMSO (0 μM, the final concentration of DMSO was 1%). 5 μL of each concentration was added to 120 μL of medium (25 times diluted) and mixed by shaking. The overnight cells were taken and the culture medium was removed, 195 μL of fresh medium containing 205 nM CPT-11 was added to each well, and 5 μL of diluted medium containing the corresponding concentration of the tested sample was added respectively, and the culture plate was then placed in the 5% CO2 cell culture incubator at 37° C. for 5 days. After removing the original solution, 100 pt of fresh serum-free DMEM medium containing MTT (0.5 mg/mL) was added to each well, the culture was continued. After 4 hours, the original solution was removed, 100 μL of DMSO was added into each well, the 96-well plates were shaken away from light for 10 minutes and placed in a multi-function reader to read the absorbance at the wavelength of 552/630/690 nm. GraphPad Prism 6.0 was used to analyze the data. The inhibitory activity of compounds on cell proliferation was plotted based on cell viability and compound concentration. The IC50 value was fitted by a sigmoidal dose response curve equation Y=100/(1+10^(Log C−Log IC50)), where C was the concentration of compound.
Table 3 summarizes the inhibitory effects of compounds combined with CPT-11 on the growth of human colon cancer cell SW620 (IC50).

ATM enzyme (human) = ATM enzyme (human) (Homo sapiens, UniProt Q13315); assay: ATM kinase assay (HTRF, GST-cMyc-p53 substrate); assay type: biochemical; settings: 0.5 h, read-out: Inh (%) of ATM kinase; for inhibition at 1 µM: C 1 μm (final concentration of compound); for inhibition at 0.01 µM: C 0.01 μm (final concentration of compound); for inhibition at 0.1 µM: C 0.1 μm (final concentration of compound)
Method: In Vitro Inhibition of ATM by N,N-dimethyl-3-(4-(1-(tetrahydro-2H-pyran-4-yl)-[1,2,4]triazolo[4,3-a]quinoxalin-8-yl)phenoxy)propan-1-amine and its Analogues was Determined by ATM Kinase Assay
The reaction was initiated by the addition of a Mg/ATP mixture and incubation for 30 minutes at room temperature, the reaction was quenched by the addition of a stop solution containing EDTA. Finally, the detection buffer containing the d2-labeled anti-GST monoclonal antibody and the europium-labeled anti-phospho p53 (Ser15) antibody was added. The plate was then read in time resolved fluorescence mode and the homogeneous time resolved fluorescence (HTRF) signal was determined according to the equation: HTRF=10000×(Em665nm/Em620nm). Each compound sample was repeated in duplicate. The experiment negative control was all components except of the ATM enzyme and the positive control contained all components. All reactions were quenched by adding EDTA.
ATM kinase inhibition was detected by using the method described above. The curve equation for calculating IC50 value is as follows:
[formula] • wherein, C is the concentration of compound and D is the slope factor.

Chain of ATM enzyme (human) (Q13315 whole entry): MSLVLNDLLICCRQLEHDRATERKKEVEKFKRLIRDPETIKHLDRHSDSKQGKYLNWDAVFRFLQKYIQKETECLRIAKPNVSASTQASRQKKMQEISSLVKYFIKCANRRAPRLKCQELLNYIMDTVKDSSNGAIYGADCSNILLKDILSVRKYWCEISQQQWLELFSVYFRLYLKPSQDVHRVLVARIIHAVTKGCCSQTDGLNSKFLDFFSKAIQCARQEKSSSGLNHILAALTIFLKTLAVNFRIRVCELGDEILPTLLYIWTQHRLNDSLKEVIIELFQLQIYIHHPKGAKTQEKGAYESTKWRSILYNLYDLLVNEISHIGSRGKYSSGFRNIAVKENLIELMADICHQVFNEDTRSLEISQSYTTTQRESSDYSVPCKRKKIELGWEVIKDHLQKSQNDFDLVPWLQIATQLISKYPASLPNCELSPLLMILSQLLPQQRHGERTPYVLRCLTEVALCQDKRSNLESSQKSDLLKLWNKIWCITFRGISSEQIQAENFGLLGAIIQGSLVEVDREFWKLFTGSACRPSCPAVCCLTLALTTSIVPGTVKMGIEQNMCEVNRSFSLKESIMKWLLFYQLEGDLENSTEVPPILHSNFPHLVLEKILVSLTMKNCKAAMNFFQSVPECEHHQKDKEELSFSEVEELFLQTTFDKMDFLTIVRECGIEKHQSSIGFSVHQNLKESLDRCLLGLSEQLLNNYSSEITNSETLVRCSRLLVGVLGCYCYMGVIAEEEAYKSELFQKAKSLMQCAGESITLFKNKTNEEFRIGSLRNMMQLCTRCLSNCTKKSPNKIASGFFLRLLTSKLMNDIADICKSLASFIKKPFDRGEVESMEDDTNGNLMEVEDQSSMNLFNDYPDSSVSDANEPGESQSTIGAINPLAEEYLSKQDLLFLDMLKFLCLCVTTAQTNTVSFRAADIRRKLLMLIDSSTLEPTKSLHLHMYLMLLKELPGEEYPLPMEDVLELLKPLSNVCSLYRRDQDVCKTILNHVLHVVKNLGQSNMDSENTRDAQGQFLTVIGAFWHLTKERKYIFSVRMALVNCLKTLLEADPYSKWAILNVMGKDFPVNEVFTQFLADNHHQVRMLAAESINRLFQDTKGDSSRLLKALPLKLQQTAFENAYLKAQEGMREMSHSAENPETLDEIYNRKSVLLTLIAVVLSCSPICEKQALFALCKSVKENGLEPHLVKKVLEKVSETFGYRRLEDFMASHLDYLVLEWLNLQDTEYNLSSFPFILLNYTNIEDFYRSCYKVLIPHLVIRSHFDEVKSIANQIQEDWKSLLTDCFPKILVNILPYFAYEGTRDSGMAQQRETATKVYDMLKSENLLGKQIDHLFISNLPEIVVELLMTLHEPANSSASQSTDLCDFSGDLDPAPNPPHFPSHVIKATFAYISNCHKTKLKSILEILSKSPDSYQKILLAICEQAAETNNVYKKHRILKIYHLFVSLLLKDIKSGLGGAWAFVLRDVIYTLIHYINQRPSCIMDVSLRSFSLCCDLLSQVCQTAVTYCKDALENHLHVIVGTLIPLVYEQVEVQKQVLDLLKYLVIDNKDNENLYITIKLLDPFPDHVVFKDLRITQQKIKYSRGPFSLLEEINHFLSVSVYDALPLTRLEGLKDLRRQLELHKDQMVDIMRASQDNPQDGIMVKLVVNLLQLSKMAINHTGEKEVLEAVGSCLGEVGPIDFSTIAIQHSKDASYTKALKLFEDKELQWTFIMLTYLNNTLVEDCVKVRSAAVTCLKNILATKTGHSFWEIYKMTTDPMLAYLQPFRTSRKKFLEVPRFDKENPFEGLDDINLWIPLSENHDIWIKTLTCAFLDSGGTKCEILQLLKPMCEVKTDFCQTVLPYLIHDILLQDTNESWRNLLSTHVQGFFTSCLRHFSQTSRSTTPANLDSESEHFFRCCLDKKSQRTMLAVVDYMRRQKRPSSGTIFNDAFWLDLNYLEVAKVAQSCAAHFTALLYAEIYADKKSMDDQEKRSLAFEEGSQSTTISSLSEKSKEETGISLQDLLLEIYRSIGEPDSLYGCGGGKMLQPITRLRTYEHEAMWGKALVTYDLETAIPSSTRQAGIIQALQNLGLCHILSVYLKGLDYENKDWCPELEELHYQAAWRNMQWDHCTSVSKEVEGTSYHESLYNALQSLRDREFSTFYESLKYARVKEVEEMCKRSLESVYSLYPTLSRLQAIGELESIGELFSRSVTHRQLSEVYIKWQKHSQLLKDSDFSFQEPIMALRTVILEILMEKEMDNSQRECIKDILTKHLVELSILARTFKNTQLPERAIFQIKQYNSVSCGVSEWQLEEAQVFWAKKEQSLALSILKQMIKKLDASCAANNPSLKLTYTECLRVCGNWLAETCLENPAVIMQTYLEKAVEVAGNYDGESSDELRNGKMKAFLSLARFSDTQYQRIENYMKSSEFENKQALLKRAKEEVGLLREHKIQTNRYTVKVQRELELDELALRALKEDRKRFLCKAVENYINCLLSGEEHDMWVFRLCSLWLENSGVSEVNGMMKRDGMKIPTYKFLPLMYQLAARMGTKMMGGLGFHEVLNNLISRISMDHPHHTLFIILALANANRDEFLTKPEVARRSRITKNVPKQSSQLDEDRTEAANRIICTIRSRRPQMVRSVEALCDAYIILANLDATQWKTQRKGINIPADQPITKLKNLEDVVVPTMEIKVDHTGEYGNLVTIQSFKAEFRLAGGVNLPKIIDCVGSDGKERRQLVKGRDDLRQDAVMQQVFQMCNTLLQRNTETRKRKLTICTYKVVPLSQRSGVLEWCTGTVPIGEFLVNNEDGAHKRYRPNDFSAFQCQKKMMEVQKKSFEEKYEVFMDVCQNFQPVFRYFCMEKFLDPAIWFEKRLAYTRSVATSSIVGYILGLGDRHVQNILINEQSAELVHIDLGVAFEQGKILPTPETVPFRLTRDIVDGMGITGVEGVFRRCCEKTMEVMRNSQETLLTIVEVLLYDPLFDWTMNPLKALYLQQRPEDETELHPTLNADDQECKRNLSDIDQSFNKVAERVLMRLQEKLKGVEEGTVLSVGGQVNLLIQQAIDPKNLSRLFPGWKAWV

SMILES: CN(C)CCCOc1ccc(-c2cnc3ncc4nnc(C5CCOCC5)n4c3c2)cn1 [Example 1, N,N-dimethyl-3-((5-(1-(tetrahydro-2H-pyran-4-yl)pyrido[2,3-e][1,2,4]triazolo[4,3-a]pyrazin-8-yl)pyridin-2-yl)oxy)propan-1-amine]
- IC50 [1]: > 100000 nM
- inhibition at 10 µM (ATM enzyme (human); C 10 μm (final concentration of compound)): 90%

SMILES: CN(C)CCCOc1ccc(-c2cnc3ncc4nnc(C5CCOCC5)n4c3c2)cc1 [Example 2, N,N-dimethyl-3-(4-(1-(tetrahydro-2H-pyran-4-yl)pyrido[2,3-e][1,2,4]triazolo[4,3-a]pyrazin-8-yl)phenoxy)propan-1-amine]
- IC50 [1]: > 100000 nM
- inhibition at 1 µM (ATM enzyme (human)): 57%

SMILES: CN(C)CCCOc1ncc(-c2ccc3ncc4nnc(C5CCOCC5)n4c3c2)cn1 [Example 6, N,N-dimethyl-3-((5-(1-(tetrahydro-2H-pyran-4-yl)-[1,2,4]triazolo[4,3-a]quinoxalin-8-yl)pyrimidin-2-yl)oxy)propan-1-amine]
- IC50 [1]: > 100000 nM
- inhibition at 1 µM (ATM enzyme (human)): 57%

SMILES: CN(C)CCCOc1cnc(-c2ccc3ncc4nnc(C5CCOCC5)n4c3c2)nc1 [Example 7, N,N-dimethyl-3-((2-(1-(tetrahydro-2H-pyran-4-yl)-[1,2,4]triazolo[4,3-a]quinoxalin-8-yl)pyrimidin-5-yl)oxy)propan-1-amine]
- IC50 [1]: 3100 nM
- inhibition at 1 µM (ATM enzyme (human)): 40%

SMILES: CN(C)CCCOc1cnc(-c2ccc3ncc4nnc(C5CCOCC5)n4c3c2)cn1 [Example 8, N,N-dimethyl-3-((5-(1-(tetrahydro-2H-pyran-4-yl)-[1,2,4]triazolo[4,3-a]quinoxalin-8-yl)pyrazin-2-yl)oxy)propan-1-amine]
- IC50 [1]: 3300 nM
- inhibition at 1 µM (ATM enzyme (human)): 38%

SMILES: CN(C)CCOc1ccc(-c2ccc3ncc4nnc(C5CCOCC5)n4c3c2)cc1 [Example 9, N,N-dimethyl-2-(4-(1-(tetrahydro-2H-pyran-4-yl)-[1,2,4]triazolo[4,3-a]quinoxalin-8-yl)phenoxy)ethan-1-amine]
- IC50 [1]: 1940 nM
- inhibition at 1 µM (ATM enzyme (human)): 72%

SMILES: CN(C)CCCNc1ccc(-c2ccc3ncc4nnc(C5CCOCC5)n4c3c2)cc1 [Example 10, N-(3-(dimethylamino)propyl)-4-(1-(tetrahydro-2H-pyran-4-yl)-[1,2,4]triazolo[4,3-a]quinoxalin-8-yl)aniline]
- IC50 [1]: 5210 nM
- inhibition at 1 µM (ATM enzyme (human)): 85%

SMILES: CN1CCN(c2ccc(-c3ccc4ncc5nnc(C6CCOCC6)n5c4c3)cc2)CC1 [Example 13, 8-(4-(4-methylpiperazin-1-yl)phenyl)-1-(tetrahydro-2H-pyran-4-yl)-[1,2,4]triazolo[4,3-a]quinoxaline]
- IC50 [1]: > 100000 nM
- inhibition at 0.01 µM (ATM enzyme (human)): 8%
- inhibition at 0.1 µM (ATM enzyme (human)): 49%
- inhibition at 1 µM (ATM enzyme (human)): 93%

SMILES: C[C@@H]1CN(c2ccc(-c3ccc4ncc5nnc(C6CCOCC6)n5c4c3)cc2)C[C@H](C)N1C [Example 14, 1-(tetrahydro-2H-pyran-4-yl)-8-(4-((3S,5R)-3,4,5-trimethylpiperazin-1-yl)phenyl)-[1,2,4]triazolo[4,3-a]quinoxaline]
- IC50 [1]: > 100000 nM
- inhibition at 0.01 µM (ATM enzyme (human)): 20%
- inhibition at 0.1 µM (ATM enzyme (human)): 52%
- inhibition at 1 µM (ATM enzyme (human)): 96%

SMILES: CN(C)C1CCN(c2ccc(-c3ccc4ncc5nnc(C6CCOCC6)n5c4c3)cn2)CC1 [Example 15, N,N-dimethyl-1-(5-(1-(tetrahydro-2H-pyran-4-yl)-[1,2,4]triazolo[4,3-a]quinoxalin-8-yl)pyridin-2-yl)piperidin-4-amine]
- IC50 [1]: 485 nM
- inhibition at 0.01 µM (ATM enzyme (human)): 33%
- inhibition at 0.1 µM (ATM enzyme (human)): 80%
- inhibition at 1 µM (ATM enzyme (human)): 98%

SMILES: C[C@@H]1CN(c2nnc3cnc4ccc(-c5ccc(OCCCN(C)C)nc5)cc4n23)C[C@H](C)N1C [Example 26, N,N-dimethyl-3-((5-(1-((3S,5R)-3,4,5-trimethylpiperazin-1-yl)-[1,2,4]triazolo[4,3-a]quinoxalin-8-yl)pyridin-2-yl)oxy)propan-1-amine]
- IC50 [1]: 57 nM

SMILES: CNC1CCN(c2ccc(-c3ccc4ncc5nnc(N6C[C@@H](C)N(C)[C@@H](C)C6)n5c4c3)cc2F)CC1 [Example 94, N-methyl-1-(2-fluoro-4-(1-((3S,5R)-3,4,5-trimethylpiperazin-1-yl)-[1,2,4]triazolo[4,3-a]quinoxalin-8-yl)phenyl)piperidin-4-amine]
- IC50 [1]: 13 nM

SMILES: CCNC1CCN(c2ccc(-c3ccc4ncc5nnc(N6C[C@@H](C)N(C)[C@@H](C)C6)n5c4c3)cc2F)CC1 [Example 96, N-ethyl-1-(2-fluoro-4-(1-((3S,5R)-3,4,5-trimethylpiperazin-1-yl)-[1,2,4]triazolo[4,3-a]quinoxalin-8-yl)phenyl)piperidin-4-amine]
- IC50 [1]: 15 nM

SMILES: C[C@@H]1CN(c2nnc3cnc4ccc(-c5ccc(OCCCN(C)C)c(C(F)(F)F)c5)cc4n23)C[C@H](C)O1 [Example 102, N,N-dimethyl-3-(2-(trifluoromethyl)-4-(1-((2S,6R)-2,6-dimethylmorpholino)-[1,2,4]triazolo[4,3-a]quinoxalin-8-yl)phenoxy)propan-1-amine]
- IC50 [1]: 21.1 nM

SMILES: C[C@@H]1CN(c2nnc3cnc4ccc(-c5ccc(N6CCC(N(C)C)CC6)cc5)cc4n23)C[C@H](C)O1 [Example 103, 1-(4-(1-((2S,6R)-2,6-dimethylmorpholino)-[1,2,4]triazolo[4,3-a]quinoxalin-8-yl)phenyl)-N,N-dimethylpiperidin-4-amine]
- IC50 [1]: 176 nM

SMILES: C[C@@H]1CN(c2nnc3cnc4ccc(-c5ccc(N6CCC(N(C)C)CC6)c(F)c5)cc4n23)C[C@H](C)O1 [Example 104, 1-(4-(1-((2S,6R)-2,6-dimethylmorpholino)-[1,2,4]triazolo[4,3-a]quinoxalin-8-yl)-2-fluorophenyl)-N,N-dimethylpiperidin-4-amine]
- IC50 [1]: 28.2 nM

SMILES: CN(C)CCCOc1ccc(-c2ccc3ncc4nnc(N5CCCCC5)n4c3c2)cc1C(F)(F)F [Example 111, N,N-dimethyl-3-(4-(1-(piperidin-1-yl)-[1,2,4]triazolo[4,3-a]quinoxalin-8-yl)-2-(trifluoromethyl)phenoxy)propan-1-amine]
- IC50 [1]: 16.2 nM

SMILES: CN(C)C1CCN(c2ccc(-c3ccc4ncc5nnc(N6CCCCC6)n5c4c3)cc2F)CC1 [Example 112, 1-(2-fluoro-4-(1-(piperidin-1-yl)-[1,2,4]triazolo[4,3-a]quinoxalin-8-yl)phenyl)-N,N-dimethylpiperidin-4-amine]
- IC50 [1]: 21.9 nM

SMILES: CNC1CCN(c2ccc(-c3ccc4ncc5nnc(N6C[C@@H](C)N(C)[C@@H](C)C6)n5c4n3)cc2F)CC1 [Example 117, 1-(2-fluoro-4-(9-((3S,5R)-3,4,5-trimethylpiperazin-1-yl)pyrido[3,2-e][1,2,4]triazolo[4,3-a]pyrazin-2-yl)phenyl)-N-methylpiperidin-4-amine]
- IC50 [1]: 47.5 nM

SMILES: CCNC1CCN(c2ccc(-c3ccc4ncc5nnc(N6C[C@@H](C)N(C)[C@@H](C)C6)n5c4n3)cc2F)CC1 [Example 119, N-ethyl-1-(2-fluoro-4-(9-((3S,5R)-3,4,5-trimethylpiperazin-1-yl)pyrido[3,2-e][1,2,4]triazolo[4,3-a]pyrazin-2-yl)phenyl)piperidin-4-amine]
- IC50 [1]: 43.1 nM

SMILES: CN(C)CCCOc1ccc(-c2ccc3ncc4nnc(C5CCOCC5)n4c3n2)cc1F [Example 139, 3-(2-fluoro-4-(9-(tetrahydro-2H-pyran-4-yl)pyrido[3,2-e][1,2,4]triazolo[4,3-a]pyrazin-2-yl)phenoxy)-N,N-dimethylpropan-1-amine]
- IC50 [1]: 262 nM

SMILES: CN(C)CCCOc1ccc(-c2ccc3ncc4nnc(C5CCOCC5)n4c3n2)cc1Cl [Example 140, 3-(2-chloro-4-(9-(tetrahydro-2H-pyran-4-yl)pyrido[3,2-e][1,2,4]triazolo[4,3-a]pyrazin-2-yl)phenoxy)-N,N-dimethylpropan-1-amine]
- IC50 [1]: 213 nM
